Columns and labels:
[1] = molecular target: T1, mouse Siglec-2-Fc-Avi (CD22) (Mus musculus, UniProt P35329); test: SPR binding affinity to mouse CD22; details: steady-state analysis
T1 construct: made in house
T1 sequence (P35329 22-708 limits assumed): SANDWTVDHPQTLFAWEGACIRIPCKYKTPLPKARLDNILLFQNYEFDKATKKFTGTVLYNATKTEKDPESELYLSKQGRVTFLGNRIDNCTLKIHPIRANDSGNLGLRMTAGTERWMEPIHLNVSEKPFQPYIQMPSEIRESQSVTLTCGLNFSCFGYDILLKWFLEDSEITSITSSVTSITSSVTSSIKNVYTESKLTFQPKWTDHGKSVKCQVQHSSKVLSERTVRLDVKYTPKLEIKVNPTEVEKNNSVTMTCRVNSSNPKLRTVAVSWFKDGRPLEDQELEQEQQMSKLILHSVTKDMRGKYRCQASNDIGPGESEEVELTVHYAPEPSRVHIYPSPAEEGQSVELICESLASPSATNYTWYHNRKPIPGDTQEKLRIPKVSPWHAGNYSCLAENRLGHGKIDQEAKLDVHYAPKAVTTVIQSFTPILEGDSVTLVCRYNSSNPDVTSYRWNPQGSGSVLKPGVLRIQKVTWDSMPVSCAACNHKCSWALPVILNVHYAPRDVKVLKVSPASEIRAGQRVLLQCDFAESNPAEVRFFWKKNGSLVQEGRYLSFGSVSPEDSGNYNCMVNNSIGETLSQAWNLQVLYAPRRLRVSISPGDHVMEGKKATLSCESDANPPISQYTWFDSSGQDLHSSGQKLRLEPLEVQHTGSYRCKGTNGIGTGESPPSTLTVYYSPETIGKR
Summary of the method: (§1)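 Using a Biacore 8K, compounds were tested against biotinylated CD22 captured after sialidase treatment. The running buffer held 1% DMSO, corrected with a 0.5–2% DMSO series. Affinity was derived by steady-state analysis.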

[2] = molecular target: T2, human Siglec-2/CD22 protein (Homo sapiens, UniProt P20273); test: SPR binding affinity to human CD22; details: steady-state analysis
T2 construct: purchased Acro Biosystems SI2-H82E3
T2 sequence (P20273 20-847): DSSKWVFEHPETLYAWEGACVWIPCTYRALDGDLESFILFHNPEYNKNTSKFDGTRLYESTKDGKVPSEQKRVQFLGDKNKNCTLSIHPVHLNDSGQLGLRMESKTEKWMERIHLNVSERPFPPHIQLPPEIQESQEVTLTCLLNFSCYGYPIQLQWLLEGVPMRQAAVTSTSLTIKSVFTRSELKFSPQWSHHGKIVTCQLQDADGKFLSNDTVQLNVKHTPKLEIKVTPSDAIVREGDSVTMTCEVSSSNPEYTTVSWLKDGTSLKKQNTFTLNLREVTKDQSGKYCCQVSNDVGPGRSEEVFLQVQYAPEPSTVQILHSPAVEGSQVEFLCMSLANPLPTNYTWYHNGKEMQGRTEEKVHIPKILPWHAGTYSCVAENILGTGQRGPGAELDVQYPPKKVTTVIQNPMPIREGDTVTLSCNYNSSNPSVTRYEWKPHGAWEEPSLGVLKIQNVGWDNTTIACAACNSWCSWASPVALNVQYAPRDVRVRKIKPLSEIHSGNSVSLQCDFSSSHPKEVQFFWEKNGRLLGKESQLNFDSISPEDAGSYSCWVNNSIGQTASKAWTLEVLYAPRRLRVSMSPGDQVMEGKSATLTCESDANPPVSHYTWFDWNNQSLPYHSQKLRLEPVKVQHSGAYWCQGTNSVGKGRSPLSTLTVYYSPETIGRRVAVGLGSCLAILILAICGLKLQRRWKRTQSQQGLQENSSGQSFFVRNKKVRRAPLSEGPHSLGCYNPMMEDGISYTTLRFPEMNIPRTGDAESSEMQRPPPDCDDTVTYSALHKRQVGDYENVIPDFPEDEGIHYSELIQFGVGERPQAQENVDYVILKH
Summary of the method: as §1

[3] = molecular target: cynomolgus Siglec-2/CD22 (Macaca fascicularis, UniProt A0A2K5WCZ6); test: biochemical; assay type: binding; details: SPR, steady-state analysis; read-out: Affinity cyno CD22
Summary of the method: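 SPR with desialylated (SialoExo, 4 h, 37° C.) cynomolgus CD22 amine-coupled to a CM5 chip. Running buffer 10 mM HEPES, 150 mM NaCl, 0.05% Tween-20, pH 7.5, 1% DMSO, with solvent correction; 120 s dissociation. Affinities from steady-state analysis.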

cynomolgus Siglec-2/CD22, sequence (A0A2K5WCZ6 entry or part of it): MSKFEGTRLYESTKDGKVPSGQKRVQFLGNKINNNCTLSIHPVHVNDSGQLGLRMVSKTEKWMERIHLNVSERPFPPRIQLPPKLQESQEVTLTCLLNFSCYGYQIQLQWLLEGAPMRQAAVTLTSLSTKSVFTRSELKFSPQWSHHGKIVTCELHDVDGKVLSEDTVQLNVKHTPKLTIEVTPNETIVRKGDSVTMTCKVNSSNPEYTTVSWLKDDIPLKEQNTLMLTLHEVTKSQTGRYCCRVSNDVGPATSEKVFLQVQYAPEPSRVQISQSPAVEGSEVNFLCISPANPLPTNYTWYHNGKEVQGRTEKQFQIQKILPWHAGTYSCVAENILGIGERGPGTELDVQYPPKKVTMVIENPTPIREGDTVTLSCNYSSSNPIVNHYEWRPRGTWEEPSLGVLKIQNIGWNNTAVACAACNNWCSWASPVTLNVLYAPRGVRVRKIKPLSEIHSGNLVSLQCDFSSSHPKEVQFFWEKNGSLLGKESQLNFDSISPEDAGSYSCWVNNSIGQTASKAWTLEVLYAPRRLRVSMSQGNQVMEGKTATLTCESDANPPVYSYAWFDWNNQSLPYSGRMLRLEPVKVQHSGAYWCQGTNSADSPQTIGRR

Kd [1] [nM] | Kd [2] [nM] | Kd [3] [nM] | Compound
> 10000 | 1000 to 10000 | 1000 to 10000 | C#CCOCCOCCO[C@]1(C(=O)O)C[C@H](O)[C@@H](NC(=O)CO)[C@H]([C@H](O)[C@H](O)CNC(=O)Cc2ccc(-c3cccc(C#N)c3)cc2)O1 [Compound 81, (2R,4S,5R,6R)-6-((1R,2R)-3-(2-(3′-cyano-[1,1′-biphenyl]-4-yl)acetamido)-1,2-dihydroxypropyl)-4-hydroxy-5-(2-hydroxyacetamido)-2-(2-(2-(prop-2-yn-1-yloxy)ethoxy)ethoxy)tetrahydro-2H-pyran-2-carboxylic acid]
> 10000 | 1000 to 10000 | 1000 to 10000 | C#CCCOc1ccc(CO[C@]2(C(=O)O)C[C@H](O)[C@@H](NC(=O)CO)[C@H]([C@H](O)[C@H](O)CNC(=O)C3(c4ccccc4)CC3)O2)cc1 [Compound 173, (2R,4S,5R,6R)-2-((4-(but-3-yn-1-yloxy)benzyl)oxy)-6-((1R,2R)-1,2-dihydroxy-3-(1-phenylcyclopropane-1-carboxamido)propyl)-4-hydroxy-5-(2-hydroxyacetamido)tetrahydro-2H-pyran-2-carboxylic acid]
1000 to 10000 | 1000 to 10000 | < 1000 | C#CCOCCCCCCO[C@]1(C(=O)O)C[C@H](O)[C@@H](NC(=O)NCCO)[C@H]([C@H](O)[C@H](O)CNC(=O)Cc2ccc(Cl)cc2)O1 [Compound 185, (2R,4S,5R,6R)-6-((1R,2R)-3-(2-(4-chlorophenyl)acetamido)-1,2-dihydroxypropyl)-4-hydroxy-5-(3-(2-hydroxyethyl)ureido)-2-((6-(prop-2-yn-1-yloxy)hexyl)oxy)tetrahydro-2H-pyran-2-carboxylic acid]
1000 to 10000 | 1000 to 10000 | 1000 to 10000 | CC(=O)NCCOCCOCCOCCOCc1cn(CCOCCOCCO[C@]2(C(=O)O)C[C@H](O)[C@@H](NC(=O)CO)[C@H]([C@H](O)[C@H](O)CNC(=O)Cc3ccc(-c4ccccc4)cc3)O2)nn1 [Cpd. 243, (2R,4S,5R,6R)-6-((1R,2R)-3-(2-([1,1′-biphenyl]-4-yl)acetamido)-1,2-dihydroxypropyl)-4-hydroxy-5-(2-hydroxyacetamido)-2-(2-(2-(2-(4-(15-oxo-2,5,8,11-tetraoxa-14-azahexadecyl)-1H-1,2,3-triazol-1-yl)ethoxy)ethoxy)ethoxy) tetrahydro-2H-pyran-2-carboxylic acid]
> 10000 | > 10000 | > 10000 | C#CCOCCOCCO[C@]1(C(=O)O)C[C@H](O)[C@@H](NC(=O)CO)[C@H]([C@H](O)[C@H](O)CNC(=O)C[C@H]2CC[C@@H](O)CC2)O1 [Compound 200, (2R,4S,5R,6R)-6-((1R,2R)-1,2-dihydroxy-3-(2-((1s,4S)-4-hydroxycyclohexyl)acetamido)propyl)-4-hydroxy-5-(2-hydroxyacetamido)-2-(2-(2-(prop-2-yn-1-yloxy)ethoxy)ethoxy)tetrahydro-2H-pyran-2-carboxylic acid]
< 1000 | < 1000 | < 1000 | CC(=O)NCCOCCOCCOCCOCCC(=O)NCCCCCCO[C@]1(C(=O)O)C[C@H](O)[C@@H](NC(=O)CO)[C@H]([C@H](O)[C@H](O)CNC(=O)Cc2ccc(-c3nnn[nH]3)cc2)O1 [Cpd. 235, (2R,4S,5R,6R)-6-((1R,2R)-3-(2-(4-(1H-tetrazol-5-yl)phenyl)acetamido)-1,2-dihydroxypropyl)-2-((2,18-dioxo-6,9,12,15-tetraoxa-3,19-diazapentacosan-25-yl)oxy)-4-hydroxy-5-(2-hydroxyacetamido)tetrahydro-2H-pyran-2-carboxylic acid]
< 1000 | < 1000 | < 1000 | C#CCOCCCCCCO[C@]1(C(=O)O)C[C@H](O)[C@@H](NC(=O)CO)[C@H]([C@H](O)[C@H](O)CNC(=O)Cc2ccc(Cl)c(O)c2)O1 [Compound 128, (2R,4S,5R,6R)-6-((1R,2R)-3-(2-(4-chloro-3-hydroxyphenyl)acetamido)-1,2-dihydroxypropyl)-4-hydroxy-5-(2-hydroxyacetamido)-2-((6-(prop-2-yn-1-yloxy)hexyl)oxy)tetrahydro-2H-pyran-2-carboxylic acid]
1000 to 10000 | < 1000 | < 1000 | C#CCOCCOCCO[C@]1(C(=O)O)C[C@H](O)[C@@H](NC(=O)CO)[C@H]([C@H](O)[C@H](O)CNC(=O)Cc2ccc3[nH]ccc3c2)O1 [Compound 196, (2R,4S,5R,6R)-6-((1R,2R)-3-(2-(1H-indol-5-yl)acetamido)-1,2-dihydroxypropyl)-4-hydroxy-5-(2-hydroxyacetamido)-2-(2-(2-(prop-2-yn-1-yloxy)ethoxy)ethoxy)tetrahydro-2H-pyran-2-carboxylic acid]
> 10000 | > 10000 | > 10000 | C#CCCOc1ccc(CO[C@]2(C(=O)O)C[C@H](O)[C@@H](NC(=O)CO)[C@H]([C@H](O)[C@H](O)CN)O2)cc1 [Compound 16, (2R,4S,5R,6R)-6-((1R,2R)-3-amino-1,2-dihydroxypropyl)-2-((4-(but-3-yn-1-yloxy)benzyl)oxy)-4-hydroxy-5-(2-hydroxyacetamido)tetrahydro-2H-pyran-2-carboxylic acid]
> 10000 | < 1000 | 1000 to 10000 | C#CCOCCOCCO[C@]1(C(=O)O)C[C@H](O)[C@@H](NC(=O)CO)[C@H]([C@H](O)[C@H](O)CNC(=O)Cc2cccc(-c3ccccc3)c2)O1 [Compound 33, (2R,4S,5R,6R)-6-((1R,2R)-3-(2-([1,1′-biphenyl]-3-yl)acetamido)-1,2-dihydroxypropyl)-4-hydroxy-5-(2-hydroxyacetamido)-2-(2-(2-(prop-2-yn-1-yloxy)ethoxy)ethoxy)tetrahydro-2H-pyran-2-carboxylic acid]
1000 to 10000 | 1000 to 10000 | 1000 to 10000 | C#CCCOc1ccc(CO[C@]2(C(=O)O)C[C@H](O)[C@@H](NC(=O)CO)[C@H]([C@H](O)[C@H](O)CNC(=O)Cc3ccccc3NC(C)=O)O2)cc1 [Compound 163, (2R,4S,5R,6R)-6-((1R,2R)-3-(2-(2-acetamidophenyl)acetamido)-1,2-dihydroxypropyl)-2-((4-(but-3-yn-1-yloxy)benzyl)oxy)-4-hydroxy-5-(2-hydroxyacetamido)tetrahydro-2H-pyran-2-carboxylic acid]
1000 to 10000 | 1000 to 10000 | < 1000 | C#CCOc1ccc(CO[C@]2(C(=O)O)C[C@H](O)[C@@H](NC(=O)CO)[C@H]([C@H](O)[C@H](O)CNC(=O)Cc3ccc(O)cc3)O2)cc1 [Compound 146, (2R,4S,5R,6R)-6-((1R,2R)-1,2-dihydroxy-3-(2-(4-hydroxyphenyl)acetamido)propyl)-4-hydroxy-5-(2-hydroxyacetamido)-2-((4-(prop-2-yn-1-yloxy)benzyl)oxy)tetrahydro-2H-pyran-2-carboxylic acid]

Compound | Kd [1] [nM] | Kd [2] [nM] | Kd [3] [nM]
C#CCOC[C@H](O)[C@@H](O)CO[C@]1(C(=O)O)C[C@H](O)[C@@H](NC(=O)CO)[C@H]([C@H](O)[C@H](O)CNC(=O)Cc2ccc(Cl)cc2)O1 [Compound 24, (2R,4S,5R,6R)-6-((1R,2R)-3-(2-(4-chlorophenyl)acetamido)-1,2-dihydroxypropyl)-2-((2S,3S)-2,3-dihydroxy-4-(prop-2-yn-1-yloxy)butoxy)-4-hydroxy-5-(2-hydroxyacetamido)tetrahydro-2H-pyran-2-carboxylic acid] | > 10000 | 1000 to 10000 | 1000 to 10000

From patent publication US20250064941A1, “SIGLEC LIGANDS, CONJUGATES, AND METHODS OF USE THEREOF” (Osprey Biopharmaceuticals, Inc., priority 2023, published 2025)
